Data: patent US11679107B2 (Eisai R&D Management Co., Ltd., priority 2018, dated 2023)
Where two headings read alike, the source gives them in different places.

How the values were obtained:
[1] = system: NCI-H1568 cells (high MCL1); test: Cell proliferation and viability, CellTiter-Glo, 72 hours; assay type: cell-based; details: for GI50: geometric mean; for CTGlo-ATS Mean MinResponse % 72 h NCIH1568.1: −100% cidal, 0% static, 100% maximal growth
How it was run: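 Cells grown in RPMI-1640 with 10% FBS (Panc line with added insulin and FBS to 15%) were exposed to an 11-point half-log dilution series, typically 10 μM-100 pM, at 0.1% final DMSO. After incubation at 37° C, 5% CO2, ATP content was measured by luminescence and normalized to a time-zero plate and DMSO wells.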

[2] = system: Ad2 variant pre-mRNAs spliced in HeLa S3 nuclear extracts; test: In vitro splicing assay (IVS), RT-qPCR of spliced product; assay type: biochemical; details: geometric mean
How it was run: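 Ad2 variant pre-mRNA (2 ng) with FTZΔi control RNA in HeLa S3 nuclear extract (8 μg) was pre-incubated with compound or DMSO for 15 min at 30 °C. Splicing ran 90 min at 30 °C after adding 0.5 mM ATP, creatine phosphate and MgCl2. Spliced product was quantified by TaqMan RT-qPCR, normalized to DMSO, and curve-fitted.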

SF3b complexes = biological target: T1, SF3b complexes (Homo sapiens, UniProt O75533+Q7RTV0); test: Scintillation proximity assay (SPA) with [3H]-labelled pladienolide probe; assay type: binding; details: SF3B1 (WT); geometric mean; read-out: SPA-ATS GMean IC50 (nM) SF3B1 (WT)
T1 construct: endogenous in cells; host or cells: Nuclear extracts; A HeLa S3 extract preparation is described for the in vitro splicing assay
How it was run: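 SF3b complexes captured from nuclear extracts on anti-SF3B1 antibody SPA beads; test compounds pre-incubated 30 min before 2.5 nM [3H]-pladienolide probe added, then 30 min incubation. Bound probe read by scintillation; values from non-linear regression of concentration–response curves.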

[3] = NCI-H1568, read-out: CTGlo-ATS GMean GI50 (nM) 72 h NCIH1568.1, NCIH1568.1 cells, 72 h
[4] = Ad2.1 pre-mRNA substrate, read-out: qPCR-IVS-ATS GMean IC50 (nM) Ad2.1
[5] = Ad2.2 pre-mRNA substrate, read-out: qPCR-IVS-ATS GMean IC50 (nM) Ad2.2
[6] = NCI-H1568, 72 h, read-out: CTGlo-ATS GMean GI50 (nM) 72 h NCIH1568.1, NCIH1568.1 cells, 72 h

Structure (SMILES)	GI50 [1, 3] [nM]	CTGlo-ATS Mean MinResponse % 72 h NCIH1568.1 ([1]; NCIH1568.1 cells, 72 h) [%]	IC50 [2, 4] [nM]	IC50 [2, 5] [nM]	IC50 (SF3b complexes) [nM]	GI50 [1, 6] [nM]
C/C(=C\c1cc(F)cc(N2CCN(C(=O)CCO)CC2)c1)[C@H]1OC(=O)C[C@H](O)CC[C@H](C)[C@@H](OC(=O)N2CCN(C)CC2)/C=C/[C@@H]1C [Compound 155]	1.91	−83.475	8.45	5.88	2.21	–
C/C(=C\c1cc(F)c2nnn(C3(C)CCOCC3)c2c1)[C@H]1OC(=O)C[C@H](O)CC[C@H](C)[C@@H](OC(=O)N2CCN(C)CC2)/C=C/[C@@H]1C [Compound 156]	–	−87.369	8.37	7.91	3.95	1.27
C/C(=C\c1cc(F)c2nnn(C3CCN(S(C)(=O)=O)CC3)c2c1)[C@H]1OC(=O)C[C@H](O)CC[C@H](C)[C@@H](OC(=O)N2CCN(C)CC2)/C=C/[C@@H]1C [Compound 157]	1.29	−90.424	8.47	7.49	2.27	–
C/C(=C\c1cc(F)c2nnn(C3CCS(=O)(=O)CC3)c2c1)[C@H]1OC(=O)C[C@H](O)CC[C@H](C)[C@@H](OC(=O)N2CCN(C)CC2)/C=C/[C@@H]1C [Compound 158]	6.57	−87.167	18.9	18.2	13.9	–
COCCn1nnc2c(F)cc(/C=C(\C)[C@H]3OC(=O)C[C@H](O)CC[C@H](C)[C@@H](OC(=O)N4CCN(C)CC4)/C=C/[C@@H]3C)cc21 [Compound 159]	3.45	−65.047	88.3	10.2	1.84	–
C/C(=C\c1cc(F)c2nnn([C@@H]3CCCOC3)c2c1)[C@H]1OC(=O)C[C@H](O)CC[C@H](C)[C@@H](OC(=O)N2CCN(C)CC2)/C=C/[C@@H]1C [Compound 161]	0.772	−85.783	8.5	6.31	2.51	–
C/C(=C\c1cc(F)c2nnn([C@H]3CCCOC3)c2c1)[C@H]1OC(=O)C[C@H](O)CC[C@H](C)[C@@H](OC(=O)N2CCN(C)CC2)/C=C/[C@@H]1C [Compound 162]	1.47	−75.943	9.29	7.4	1.08	–
C/C(=C\c1cc(F)c2nnn(C3CCCCC3)c2c1)[C@H]1OC(=O)C[C@H](O)CC[C@H](C)[C@@H](OC(=O)N2CCN(C)CC2)/C=C/[C@@H]1C [Compound 164]	1.54	−87.159	20.7	27.9	3.59	–
COc1ccc(-n2nnc3c(F)cc(/C=C(\C)[C@H]4OC(=O)C[C@H](O)CC[C@H](C)[C@@H](OC(=O)N5CCN(C)CC5)/C=C/[C@@H]4C)cc32)cc1 [Compound 165]	10	−78.159	29.5	15.2	18.7	–
COc1ccc(Cn2nnc3c(F)cc(/C=C(\C)[C@H]4OC(=O)C[C@H](O)CC[C@H](C)[C@@H](OC(=O)N5CCN(C)CC5)/C=C/[C@@H]4C)cc32)cc1 [Compound 166]	17.6	−66.370	1510	48.3	23.8	–
C/C(=C\c1cc(F)cc(NC2CCN(S(C)(=O)=O)CC2)c1)[C@H]1OC(=O)C[C@H](O)CC[C@H](C)[C@@H](OC(=O)N2CCN(C)CC2)/C=C/[C@@H]1C [Compound 173]	–	−79.437	88.1	28.4	21	15.2
CCN(c1cc(F)cc(/C=C(\C)[C@H]2OC(=O)C[C@H](O)CC[C@H](C)[C@@H](OC(=O)N3CCN(C)CC3)/C=C/[C@@H]2C)c1)C1CCN(S(C)(=O)=O)CC1 [Compound 175]	–	−99.134	9.5	8.12	5.83	9.49
C/C(=C\c1cc(F)cc(N(C(C)C)C2CCN(S(C)(=O)=O)CC2)c1)[C@H]1OC(=O)C[C@H](O)CC[C@H](C)[C@@H](OC(=O)N2CCN(C)CC2)/C=C/[C@@H]1C [Compound 176]	19	−88.183	49.7	31.2	38.5	–
CC(=O)N1CCC(N(C)c2cc(F)cc(/C=C(\C)[C@H]3OC(=O)C[C@H](O)CC[C@H](C)[C@@H](OC(=O)N4CCN(C)CC4)/C=C/[C@@H]3C)c2)CC1 [Compound 177]	3.62	−80.643	18.2	10.3	2.38	–
CCC(=O)N1CCC(N(C)c2cc(F)cc(/C=C(\C)[C@H]3OC(=O)C[C@H](O)CC[C@H](C)[C@@H](OC(=O)N4CCN(C)CC4)/C=C/[C@@H]3C)c2)CC1 [Compound 178]	6.85	−77.714	20.4	4.31	2.16	–
COCC(=O)N1CCC(N(C)c2cc(F)cc(/C=C(\C)[C@H]3OC(=O)C[C@H](O)CC[C@H](C)[C@@H](OC(=O)N4CCN(C)CC4)/C=C/[C@@H]3C)c2)CC1 [Compound 179]	8.7	−82.684	31.4	14.2	6.15	–
C/C(=C\c1cc(F)cc(N(C)C2CCN(C(=O)c3ccccc3)CC2)c1)[C@H]1OC(=O)C[C@H](O)CC[C@H](C)[C@@H](OC(=O)N2CCN(C)CC2)/C=C/[C@@H]1C [Compound 180]	14.4	−86.471	29.9	24.6	42.3	–
C/C(=C\c1cc(F)cc(N(C)C2CCN(C(=O)C(F)(F)F)CC2)c1)[C@H]1OC(=O)C[C@H](O)CC[C@H](C)[C@@H](OC(=O)N2CCN(C)CC2)/C=C/[C@@H]1C [Compound 181]	9.74	−85.226	19.7	19.2	8.2	–
CCCS(=O)(=O)N1CCC(N(C)c2cc(F)cc(/C=C(\C)[C@H]3OC(=O)C[C@H](O)CC[C@H](C)[C@@H](OC(=O)N4CCN(C)CC4)/C=C/[C@@H]3C)c2)CC1 [Compound 182]	–	−69.521	208	40.1	86.4	23.4
C/C(=C\c1cc(F)cc(N(C)C2CCN(S(=O)(=O)C3CCCC3)CC2)c1)[C@H]1OC(=O)C[C@H](O)CC[C@H](C)[C@@H](OC(=O)N2CCN(C)CC2)/C=C/[C@@H]1C [Compound 183]	–	−66.270	713	20.3	66.3	53.6
C/C(=C\c1cc(F)cc(N(C)C2CCN(S(=O)(=O)c3cn(C)cn3)CC2)c1)[C@H]1OC(=O)C[C@H](O)CC[C@H](C)[C@@H](OC(=O)N2CCN(C)CC2)/C=C/[C@@H]1C [Compound 184]	59.8	−85.535	18.1	11.6	14.4	–
